PMC12176268, “Structural Features and Photophysical and Antiproliferative Properties of Me2N‑pbt-Cycloplatinated Complexes with Picolinate Ligands” (Inorganic Chemistry, 2025)

How the values were obtained:
[1] = Singlet oxygen generation, NIR emission at 1274 nm versus phenalenone; format: physicochemical; details: aerated acetonitrile 5 × 10^–5 M, 298 K, excitation 365 nm, reference phenalenone
Experimental: In aerated DMSO solutions, complexes 1–3 display a fluorescence band only at ca 510 nm, attributed to ^1LL′CT/^1ILCT, due to easy quenching of the phosphorescence by oxygen. However, upon prolonged photoexcitation at 365 nm, a continuous enhancement of the phosphorescence band is observed. Simply irradiating with a hand UV–vis lamp, the initial blue-green emission gradually shifts to the orange enhanced emission. The phosphorescence increases its maximum intensity in ca 15 1, 8 2, or 12 min 3 (Figures and S23). […] This relatively rare behavior has been previously observed by us , and other groups, and is explained by the occurrence of a local sensitization caused by energy transfer from the low-energy triplet to ^3O2-producing singlet ^1O2, which is able to selectively react with the solvent creating a free oxygen microenvironment that switches-on a phosphorescence band due to ^3ILCT at 580 nm. The strong sensitivity of the phosphorescence emission in these complexes encourages us to determine their efficiency as ^1O2 sensitizers. The singlet oxygen generation of complexes 1–3 was examined in acetonitrile solution (5 × 10^–5 M) using a near-infrared detector upon excitation at 365 nm, detecting the characteristic emission profile of ^1O2 at λem ∼ 1274 nm (Figure ).

[2] = biological target: bovine serum albumin (BSA) (Bos taurus, UniProt P02769); test: Quenching of intrinsic BSA fluorescence (Stern–Volmer, binding constant); details: 5 μM BSA, 20 mM PB pH 7.4, 1% DMSO, 1 h room temperature
Experimental: In order to further characterize the interactions between complex 3 and BSA, we monitored the evolution of the intrinsic emission band of BSA upon excitation at 290 nm, attributed to the Trp213 residue located in the hydrophobic domain IIA, in the presence of an increasing concentration of complex 3. Briefly, the emission spectra of solutions containing 5 μM BSA dissolved in 20 mM PB buffer (pH 7.4) containing 1% DMSO incubated for 1 h at room temperature with concentrations of 3 ranging from 1 to 100 μM (Figure S33A) were recorded. […] The kinetics of the intermolecular quenching processes follow the Stern–Volmer eq : 2 F0/F=1+Ksv[3] where F 0 is the fluorescence intensity of pure BSA, F is the fluorescence intensity after the addition of 3, and K SV is the Stern–Volmer dynamic quenching efficiency (Figure S33B). K SV (eq ) can be expressed as the product of the quenching rate k q and the average lifetime of the fluorophore τ0 in the excited state, which is typically 10^–8 s. 3 KSV=kqτ0
The linear Stern–Volmer plot can be indicative of either a dynamic or static quenching mechanism.
It is further possible to determine the number of binding sites (n) and the binding constant (Kb) by plotting log((F0-F)/F) vs log([3]) (Figure S33C) according to eq . 4 log(F0−F/F)=logKb+nlog[3] […]

[3] = Catalytic oxidation and photooxidation of NADH monitored by 1H NMR; format: biochemical
Text: NADH is a key coenzyme involved in many biocatalyzed redox reactions in living cells, and the adequate redox balance of the NADH/NAD^+ redox couple is an important indicator of the metabolic state of the cell. Indeed, the overall in-cell NADH level is higher in cancerous cells than in normal cells to ensure high cell proliferation. Therefore, any selective catalysis of intracellular NADH oxidation to NAD^+ by a metal complex in cancer cells can disrupt its intracellular redox balance, causing cell death. , The catalytic oxidation and photooxidation of NADH (2.8 mM) by 3 (0.8 mM) in DMSO/D2O (5/95 v/v) was monitored by ^1H NMR spectroscopy at 298 K (Figure S34). In the dark (NADH + 3 + dark), a new set of characteristic peaks at 9.33, 9.17, 8.81, 8.48, 8.43, 8.20, 8.16, 6.04, and 5.97 ppm, ascribed to the protons of NAD^+ (∼8%), were detected after 72 h. Light irradiation greatly accelerates the oxidation process. In fact, ∼33% of NADH was oxidized to NAD^+ after irradiation (460 nm, 2 h), with an oxidation turnover number (TON) of 1.4 after 2 h (TOF 0.7 h^–1). […] It should be noted that platinum(II) complexes showing biocatalytic activity on the NADH/NAD^+ redox couple are very scarce.
The time dependence of the catalytic oxidation and photooxidation of complex 3 (0.8 mM) with NADH (2.8 mM) in DMSO/D2O (5/95 v/v) was studied for 72 h in the dark or 2h with light irradiation (λexc = 460 nm) by ^1H NMR at 298 K. The conversion of NADH to NAD^+ was approximately calculated from the NMR data.

[4] = Stability in serum-free DMEM containing 5% DMSO by UV–vis; format: physicochemical; details: DMEM with 5% DMSO, 25 μM, 37 °C
Text: The stability of complexes 1–4 was then investigated in more biologically relevant media by UV–visible spectroscopy. First, the stability of the complexes was studied in phosphate-buffered saline (PBS) containing 5% DMSO (Figure S30). […] Only a decrease in the intensity of all bands was observed, which could be attributed to partial aggregation and/or precipitation. […] The stability of complexes 1–4 was next studied in serum-free DMEM cell culture containing 5% DMSO (Figure S31). […] This final species seemed to have spectral features similar to those observed for complex 4 (Figure S31A). […] The similarity of the spectral features of the transformed species in all cases seemed to point to the formation of a common species upon incubation in DMEM, which we tentatively attribute to the decoordination of the picolinate ligands with a substituent-dependent kinetics; the COOH group favored the release of the picolinate ligand, while both NH2 and OH substituents seemed to slow down this process.
The UV–vis spectra of complexes 1–4 were recorded in PBS:DMSO (95/5) and serum-free DMEM:DMSO (95/5) at a concentration of 25 μM on a Cary 50 spectrophotometer (Varian).

Sequence of bovine serum albumin (BSA) (P02769 25-607): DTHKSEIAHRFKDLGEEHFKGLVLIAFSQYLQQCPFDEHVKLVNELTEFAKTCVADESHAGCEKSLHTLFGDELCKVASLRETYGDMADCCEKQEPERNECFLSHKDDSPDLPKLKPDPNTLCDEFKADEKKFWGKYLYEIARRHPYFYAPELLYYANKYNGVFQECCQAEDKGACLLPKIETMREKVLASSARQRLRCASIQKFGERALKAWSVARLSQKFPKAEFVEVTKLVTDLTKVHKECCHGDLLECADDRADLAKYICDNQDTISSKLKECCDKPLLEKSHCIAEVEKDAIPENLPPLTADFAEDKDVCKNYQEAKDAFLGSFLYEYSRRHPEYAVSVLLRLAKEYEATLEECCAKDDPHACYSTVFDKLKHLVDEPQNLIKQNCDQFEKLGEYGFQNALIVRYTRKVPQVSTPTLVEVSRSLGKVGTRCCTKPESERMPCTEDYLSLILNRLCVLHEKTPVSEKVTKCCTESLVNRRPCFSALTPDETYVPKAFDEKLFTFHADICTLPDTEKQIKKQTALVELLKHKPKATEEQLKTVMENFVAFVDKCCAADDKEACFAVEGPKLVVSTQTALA

[Pt(Me2N-pbt)(3-OH-pic-κN,O)] [Complex 3]
quantum yield (ϕΔ) of 1O2 [1]: 16.2% | number of binding sites (n) on BSA [2]: 0.9 ± 0.07 | quenching rate kq of BSA fluorescence ([2]; λexc 290 nm, τ0 10^–8 s): 2.21 ± 0.12 × 10^12 M^–1.s^–1 | TOF ([3]; 460 nm irradiation, 2 h): 0.7 h^–1 | oxidation turnover number (TON) ([3]; 460 nm irradiation, after 2 h): 1.4 | NADH oxidized to NAD+ after irradiation ([3]; NADH 2.8 mM, complex 0.8 mM, DMSO/D2O 5/95, 298 K, 460 nm, 2 h): ~33% | NAD+ formed from NADH in the dark ([3]; NADH 2.8 mM, complex 0.8 mM, DMSO/D2O 5/95, 298 K, dark, 72 h): ~8% | stability in serum-free DMEM, UV–vis spectral changes, 24 h ([4]; 24 h): spectral features of both complexes changed | stability in serum-free DMEM, UV–vis spectral changes, first 4 h ([4]; first 4 h, dark or with 5 min irradiation at 450 nm): no spectral changes
